Test results reported in ChEMBL document CHEMBL2380302, “Synthesis of 3-O-propargylated betulinic acid and its 1,2,3-triazoles as potential apoptotic agents” (Eur J Med Chem, 2013).

Key:
[1] = test system: HCT-15; experiment: Cytotoxicity against human HCT15 cells at 10 uM after 48 hrs by SRB assay; type: functional; conditions: HCT-15, 48 h, read-out: GI
[2] = test system: SF-295; experiment: Cytotoxicity against human SF295 cells at 10 uM after 48 hrs by SRB assay; type: functional; conditions: SF-295, 48 h, read-out: GI
[3] = test system: A549; experiment: Cytotoxicity against human A549 cells at 10 uM after 48 hrs by SRB assay; type: functional; conditions: A549, 48 h, read-out: GI
[4] = test system: MCF7; experiment: Cytotoxicity against human MCF7 cells at 10 uM after 48 hrs by SRB assay; type: functional; conditions: MCF7, 48 h, read-out: GI
[5] = test system: HEp-2; experiment: Cytotoxicity against human Hep2 cells at 10 uM after 48 hrs by SRB assay; type: functional; conditions: HEp-2, 48 h, read-out: GI
[6] = test system: PC-3; experiment: Cytotoxicity against human PC3 cells at 10 uM after 48 hrs by SRB assay; type: functional; conditions: PC-3, 48 h, read-out: GI
[7] = test system: DU-145; experiment: Cytotoxicity against human DU145 cells at 10 uM after 48 hrs by SRB assay; type: functional; conditions: DU-145, 48 h, read-out: GI
[8] = test system: HL-60; experiment: Cytotoxicity against human HL60 cells at 10 uM after 48 hrs by SRB assay; type: functional; conditions: HL-60, 48 h, read-out: GI
[9] = test system: THP-1; experiment: Cytotoxicity against human THP1 cells at 10 uM after 48 hrs by SRB assay; type: functional; conditions: THP-1, 48 h, read-out: GI
[10] = test system: HCT-15; experiment: Cytotoxicity against human HCT15 cells at 30 uM after 48 hrs by SRB assay; type: functional; conditions: HCT-15, 48 h, read-out: GI
[11] = test system: SF-295; experiment: Cytotoxicity against human SF295 cells at 30 uM after 48 hrs by SRB assay; type: functional; conditions: SF-295, 48 h, read-out: GI
[12] = test system: A549; experiment: Cytotoxicity against human A549 cells at 30 uM after 48 hrs by SRB assay; type: functional; conditions: A549, 48 h, read-out: GI
[13] = test system: MCF7; experiment: Cytotoxicity against human MCF7 cells at 30 uM after 48 hrs by SRB assay; type: functional; conditions: MCF7, 48 h, read-out: GI
[14] = test system: HEp-2; experiment: Cytotoxicity against human Hep2 cells at 30 uM after 48 hrs by SRB assay; type: functional; conditions: HEp-2, 48 h, read-out: GI
[15] = test system: PC-3; experiment: Cytotoxicity against human PC3 cells at 30 uM after 48 hrs by SRB assay; type: functional; conditions: PC-3, 48 h, read-out: GI
[16] = test system: DU-145; experiment: Cytotoxicity against human DU145 cells at 30 uM after 48 hrs by SRB assay; type: functional; conditions: DU-145, 48 h, read-out: GI
[17] = test system: HL-60; experiment: Cytotoxicity against human HL60 cells at 30 uM after 48 hrs by SRB assay; type: functional; conditions: HL-60, 48 h, read-out: GI
[18] = test system: THP-1; experiment: Cytotoxicity against human THP1 cells at 30 uM after 48 hrs by SRB assay; type: functional; conditions: THP-1, 48 h, read-out: GI
[19] = test system: HCT-15; experiment: Cytotoxicity against human HCT15 cells at 50 uM after 48 hrs by SRB assay; type: functional; conditions: HCT-15, 48 h, read-out: GI
[20] = test system: SF-295; experiment: Cytotoxicity against human SF295 cells at 50 uM after 48 hrs by SRB assay; type: functional; conditions: SF-295, 48 h, read-out: GI
[21] = test system: A549; experiment: Cytotoxicity against human A549 cells at 50 uM after 48 hrs by SRB assay; type: functional; conditions: A549, 48 h, read-out: GI
[22] = test system: MCF7; experiment: Cytotoxicity against human MCF7 cells at 50 uM after 48 hrs by SRB assay; type: functional; conditions: MCF7, 48 h, read-out: GI
[23] = test system: HEp-2; experiment: Cytotoxicity against human Hep2 cells at 50 uM after 48 hrs by SRB assay; type: functional; conditions: HEp-2, 48 h, read-out: GI
[24] = test system: PC-3; experiment: Cytotoxicity against human PC3 cells at 50 uM after 48 hrs by SRB assay; type: functional; conditions: PC-3, 48 h, read-out: GI
[25] = test system: HL-60; experiment: Cytotoxicity against human HL60 cells at 50 uM after 48 hrs by SRB assay; type: functional; conditions: HL-60, 48 h, read-out: GI
[26] = test system: DU-145; experiment: Cytotoxicity against human DU145 cells at 50 uM after 48 hrs by SRB assay; type: functional; conditions: DU-145, 48 h, read-out: GI
[27] = test system: THP-1; experiment: Cytotoxicity against human THP1 cells at 50 uM after 48 hrs by SRB assay; type: functional; conditions: THP-1, 48 h, read-out: GI
[28] = test system: HCT-15; experiment: Cytotoxicity against human HCT15 cells after 48 hrs by SRB assay; type: functional, cell-based; conditions: HCT-15, 48 h
[29] = test system: A549; experiment: Cytotoxicity against human A549 cells after 48 hrs by SRB assay; type: functional, cell-based; conditions: A549, 48 h
[30] = test system: SF-295; experiment: Cytotoxicity against human SF295 cells after 48 hrs by SRB assay; type: functional, cell-based; conditions: SF-295, 48 h
[31] = test system: MCF7; experiment: Cytotoxicity against human MCF7 cells after 48 hrs by SRB assay; type: functional, cell-based; conditions: MCF7, 48 h
[32] = test system: HEp-2; experiment: Cytotoxicity against human Hep2 cells after 48 hrs by SRB assay; type: functional, cell-based; conditions: HEp-2, 48 h
[33] = test system: PC-3; experiment: Cytotoxicity against human PC3 cells after 48 hrs by SRB assay; type: functional, cell-based; conditions: PC-3, 48 h
[34] = test system: DU-145; experiment: Cytotoxicity against human DU145 cells after 48 hrs by SRB assay; type: functional, cell-based; conditions: DU-145, 48 h
[35] = test system: HL-60; experiment: Cytotoxicity against human HL60 cells after 48 hrs by SRB assay; type: functional, cell-based; conditions: HL-60, 48 h
[36] = test system: THP-1; experiment: Cytotoxicity against human THP1 cells after 48 hrs by SRB assay; type: functional, cell-based; conditions: THP-1, 48 h

Q: What does the source list for C=C(C)[C@@H]1CC[C@]2(C(=O)O)CC[C@]3(C)[C@H](CC[C@@H]4[C@@]5(C)CC[C@H](OCc6cn(-c7ccc(OC)cc7)nn6)C(C)(C)[C@@H]5CC[C@]43C)[C@@H]12?
A: inhibition of growth at 10 µM [1]: 55%; inhibition of growth at 10 µM [2]: 20%; inhibition of growth at 10 µM [3]: 38%; inhibition of growth at 10 µM [4]: 44%; inhibition of growth at 10 µM [5]: 41%; inhibition of growth at 10 µM [6]: 5%; inhibition of growth at 10 µM [7]: 35%; inhibition of growth at 10 µM [8]: 54%; inhibition of growth at 10 µM [9]: 50%; inhibition of growth at 30 µM [10]: 55%; inhibition of growth at 30 µM [11]: 46%; inhibition of growth at 30 µM [12]: 40%; inhibition of growth at 30 µM [13]: 62%; inhibition of growth at 30 µM [14]: 54%; inhibition of growth at 30 µM [15]: 8%; inhibition of growth at 30 µM [16]: 37%; inhibition of growth at 30 µM [17]: 82%; inhibition of growth at 30 µM [18]: 77%; inhibition of growth at 50 µM [19]: 57%; inhibition of growth at 50 µM [20]: 59%; inhibition of growth at 50 µM [21]: 51%; inhibition of growth at 50 µM [22]: 93%; inhibition of growth at 50 µM [23]: 74%; inhibition of growth at 50 µM [24]: 52%; inhibition of growth at 50 µM [25]: 99%; inhibition of growth at 50 µM [26]: 53%; inhibition of growth at 50 µM [27]: 97%; IC50 [28]: 8 µM; IC50 [29]: 50 µM; IC50 [30]: 44 µM; IC50 [31]: 14 µM; IC50 [32]: 23 µM; IC50 [33]: 49 µM; IC50 [34]: 48 µM; IC50 [35]: 8 µM; IC50 [36]: 10 µM
